Columns and labels:
[1] = literature; cited from earlier work
[2] = literature; cited from earlier work; remark: listed apart in the source
AMPA receptor = AMPA receptor antagonism / positive modulation: AMPA induced current in Xenopus oocytes expressing rat whole brain poly(A)+ RNA (electrophysiology); type: cell-based; conditions: for IC50: oocytes expressing rat brain AMPA receptors; for AMPA positive potentiation, 200% @ μM: concentration at which AMPA current is potentiated 200%
Experimental: The novel substituted 2,3-benzodiazepin-4-ones were assessed by electrophysiological assays in Xenopus oocytes expressing rat whole brain poly(A)^+ RNA (see Keana et al, J. Med. Chem. 38. 4367-4379 (1995)) or in cultured rat cortical neurons (see Woodward et. al. Mol. Pharmacol. 47: 568-581 (1995)) for AMPA receptor activity. Compounds which are useful for treating or preventing the adverse consequences of stroke, hypoglycemia, neurodegenerative disorders, anxiety, epilepsy or psychosis, or which induce analgesia, will inhibit the currents across the membranes of the oocyte expressing AMPA receptors. However, if the compound potentiates currents across the oocyte membrane, then the compound is expected to be useful in enhancing cognition or treating schizophrenia or neurodegenerative diseases such as Parkinson's Disease.
The ability of AMPA receptor antagonists or positive modulators to inhibit or enhance AMPA induced current in oocyte expressing neuronal AMPA receptor was determined using procedures fully described in Keana et al, J. Med. Chem. 38: 4367-4379 (1995). […] The compounds of examples 22, 30 and 31 are positive modulators of AMPA receptor. They potentiate the AMPA current 200% at a concentration of 11, 10 and 11 μM, respectively.

mice = assay: Maximal Electroshock-induced Seizure (MES) test; type: in vivo; conditions: for ED50: Mus musculus, mice, iv; for anticonvulsant activity in the MES experiment: in words
Experimental: Seizures are induced by application of current (50 mA, 60 pulses/sec, […], 1 sec duration, .c.) through saline-coated corneal electrodes using a Ugo Basile ECT device (Model 7801). […] A tonic seizure is defined as a hindlimb extension in excess of 90 degrees from the plane of the body. Results are treated in a quintal manner.

rat = conditions: literature; cited from earlier work
[3] = literature; cited from earlier work; remark: listed apart in the source
AMPA receptors = conditions: literature; cited from earlier work
[4] = literature; cited from earlier work; remark: listed apart in the source

In the case of `CC1Cc2cc3c(cc2C(c2ccc(N)cc2)=NN1)OCO3` (centres unmarked), the central nervous effect [1] is given as “CNS stimulating activity”.
For `O=C(c1ccc2c(c1)OCO2)N1CCCCC1` [BDP, 1-(1,3-benzodioxol-5-ylcarbonyl) piperidine], the memory enhancement [2] is listed as “enhance memory”.
For `Cc1ccc(C2=NNC(=O)Cc3cc4c(cc32)OCO4)cc1` [Example 9, 7,8-Methylenedioxy-1-(4-methylphenyl)-3,5-dihydro-2,3-benzodiazepin-4(4H)-one], the IC50 (AMPA receptor) was 15 µM.
In the case of `Nc1ccc(C2=NNC(=O)Cc3cc4c(cc32)OCO4)cc1` [Example 14, 1-(4-Aminophenyl)-7,8-methylenedioxy-3,5-dihydro-2,3-benzodiazepin-4(4H)-one], the IC50 (AMPA receptor) is reported as 3 µM, the ED50 (mice) is reported as 2.4 mg/kg and the “anticonvulsant activity in the MES experiment” value (mice) is reported as “active as anticonvulsants”.
For `CNC(=O)N1N=C(c2ccccc2)c2cc3c(cc2CC1=O)OCO3` [Example 15, 7,8-Methylenedioxy-3-methylaminocarbonyl-1-phenyl-3,5-dihydro-2,3-benzodiazepin-4(4H)-one], the IC50 (AMPA receptor) was 26 µM.
With `CC(C)N1N=C(c2ccccc2)c2cc3c(cc2CC1=O)OCO3` [Example 18, 3-Isopropyl-7,8-methylenedioxy-1-phenyl-3,5-dihydro-2,3-benzodiazepin-4(4H)-one] the “AMPA positive potentiation, 200% @ μM” value (AMPA receptor) was 30 µM.
For `CCC(C)N1N=C(c2ccccc2)c2cc3c(cc2CC1=O)OCO3` (centres unmarked) [Example 21, 3-(2-Butyl)-7,8-methylenedioxy-1-phenyl-3,5-dihydro-2,3-benzodiazepin-4(4H)-one], the “AMPA positive potentiation, 200% @ μM” value (AMPA receptor) was 12 µM.
In the case of `CCC(CC)N1N=C(c2ccccc2)c2cc3c(cc2CC1=O)OCO3` [Example 22, 7,8-Methylenedioxy-3-(3-pentyl)-1-phenyl-3,5-dihydro-2,3-benzodiazepin-4(4H)-one], the “AMPA positive potentiation, 200% @ μM” value (AMPA receptor) is reported as 11 µM.
In the case of `CCCC(C)N1N=C(c2ccccc2)c2cc3c(cc2CC1=O)OCO3` (centres unmarked) [Example 25, 7,8-Methylenedioxy-3-(2-pentyl)-1-phenyl-3,5-dihydro-2,3-benzodiazepin-4(4H)-one], the “AMPA positive potentiation, 200% @ μM” value (AMPA receptor) is reported as 160 µM.
For `O=C1Cc2cc3c(cc2C(c2ccccc2)=NN1C1CCCCCC1)OCO3` [Example 30, 3-Cycloheptyl-7,8-methylenedioxy-1-phenyl-3,5-dihydro-2,3-benzodiazepin-4(4H)-one], the “AMPA positive potentiation, 200% @ μM” value (AMPA receptor) was 10 µM.
For `O=C1Cc2cc3c(cc2C(c2ccccc2)=NN1C1CCCCC1)OCO3` [Example 31, 3-Cyclohexyl-7,8-methylenedioxy-1-phenyl-3,5-dihydro-2,3-benzodiazepin-4(4H)-one], the “AMPA positive potentiation, 200% @ μM” value (AMPA receptor) was 11 µM.
For `CCCC(CC)N1N=C(c2ccccc2)c2cc3c(cc2CC1=O)OCO3` (centres unmarked) [Example 33, 3-(3-Hexyl)-7,8-methylenedioxy-1-phenyl-3,5-dihydro-2,3-benzodiazepin-4(4H)-one], the “AMPA positive potentiation, 200% @ μM” value (AMPA receptor) was 24 µM.
For `CC1C(=O)NN=C(c2ccc(N)cc2)c2cc3c(cc21)OCO3` (centres unmarked) [Example 45, 1-(4-Aminophenyl)-5-methyl-7,8-methylenedioxy-3,5-dihydro-2,3-benzodiazepin-4(4H)-one], the IC50 (AMPA receptor) was 4 µM.
Molecule `CC1C(=O)NN=C(c2ccc3c(c2)OCO3)c2cc3c(cc21)OCO3` (centres unmarked) [Example 48, 5-Methyl-1-(3,4-methylenedioxyphenyl)-7,8-methylenedioxy-3,5-dihydro-2,3-benzodiazepin-4(4H)-one] has an IC50 (AMPA receptor) of 10 µM.
In the case of `COc1cc(C2=NNC(=O)Cc3cc4c(cc32)OCO4)ccc1[N+](=O)[O-]` [Example 56, 7,8-Methylenedioxy-1-(3-methoxy-4-nitrophenyl)-3,5-dihydro-2,3-benzodiazepin-4(4H)-one], the IC50 (AMPA receptor) is reported as 20 µM.
For `Cc1cc(C2=NNC(=O)Cc3cc4c(cc32)OCO4)ccc1N` [Example 61, 1-(4-Amino-3-methylphenyl)-7,8-methylenedioxy-3,5-dihydro-2,3-benzodiazepin-4(4H)-one], the IC50 (AMPA receptor) was 1 µM, the ED50 (mice) was 2.7 mg/kg and the “anticonvulsant activity in the MES experiment” value (mice) was “active as anticonvulsants”.
For `Nc1ccc(C2=NNC(=O)Cc3cc4c(cc32)OCO4)c(Cl)c1` [Example 62, 1-(4-Amino-2-chlorophenyl)-7,8-methylenedioxy-3,5-dihydro-2,3-benzodiazepin-4(4H)-one], the IC50 (AMPA receptor) was 4 µM, the ED50 (mice) was 3.2 mg/kg and the “anticonvulsant activity in the MES experiment” value (mice) was “active as anticonvulsants”.
Work on `Nc1ccc(C2=NNC(=O)Cc3cc4c(cc32)OCO4)cc1Cl` [Example 63, 1-(4-Amino-3-chlorophenyl)-7,8-methylendioxy-3,5-dihydro-2,3-benzodiazepin-4(4H)-one] yielded an IC50 (AMPA receptor) of 0.8 µM.
In the case of `CC1=NN=C(c2ccc(N)cc2)c2cc3c(cc2C1)OCO3.Cl` [GYKI 52466, 1-(4-aminophenyl)-4-methyl-7,8-methylenedioxy-5H-2,3-benzodiazepine-hydrochloride], the “neuroprotection in rat global ischemia” value (rat) is listed as “effective neuroprotective agent” and the anticonvulsant activity [3] is listed as “effective anticonvulsant”.
For `CC(=O)N1N=C(c2ccc(N)cc2)c2cc3c(cc2C[C@H]1C)OCO3` [LY300164], the anticonvulsant activity [3] is given as “anticonvulsant activity” and the AMPA receptor antagonism (AMPA receptors) is given as “noncompetitive antagonist of AMPA receptors”.
For `NS(=O)(=O)c1cccc2c1c([N+](=O)[O-])cc1nc(O)c(O)nc12` [NBQX, 2,3-dihydroxy-6-nitro-7-sulfamoylbenzo[f]quinoxaline], the “prevention of global and focal ischemic damage” value [4] is given as “effective in preventing global and focal ischemic damage”.

Source: patent US5891871A, “Substituted 2,3-benzodiazepin-4-ones and the use thereof” (CoCensys, Inc., priority 1997, dated 1999)
